Counter-ions that a name gives are not always drawn. Like-named read-outs stand apart in the source and are kept apart here.
Assays:
Type in all cases: biochemical
[1] = target: T1, JAK3 (Homo sapiens, UniProt P52333); experiment: Inhibition of a panel of kinases, in vitro HotSpot kinase assay: JAK3; conditions: 1 μM ATP, read-out: JAK3 (IC50)
T1 sequence (P52333 1-1124): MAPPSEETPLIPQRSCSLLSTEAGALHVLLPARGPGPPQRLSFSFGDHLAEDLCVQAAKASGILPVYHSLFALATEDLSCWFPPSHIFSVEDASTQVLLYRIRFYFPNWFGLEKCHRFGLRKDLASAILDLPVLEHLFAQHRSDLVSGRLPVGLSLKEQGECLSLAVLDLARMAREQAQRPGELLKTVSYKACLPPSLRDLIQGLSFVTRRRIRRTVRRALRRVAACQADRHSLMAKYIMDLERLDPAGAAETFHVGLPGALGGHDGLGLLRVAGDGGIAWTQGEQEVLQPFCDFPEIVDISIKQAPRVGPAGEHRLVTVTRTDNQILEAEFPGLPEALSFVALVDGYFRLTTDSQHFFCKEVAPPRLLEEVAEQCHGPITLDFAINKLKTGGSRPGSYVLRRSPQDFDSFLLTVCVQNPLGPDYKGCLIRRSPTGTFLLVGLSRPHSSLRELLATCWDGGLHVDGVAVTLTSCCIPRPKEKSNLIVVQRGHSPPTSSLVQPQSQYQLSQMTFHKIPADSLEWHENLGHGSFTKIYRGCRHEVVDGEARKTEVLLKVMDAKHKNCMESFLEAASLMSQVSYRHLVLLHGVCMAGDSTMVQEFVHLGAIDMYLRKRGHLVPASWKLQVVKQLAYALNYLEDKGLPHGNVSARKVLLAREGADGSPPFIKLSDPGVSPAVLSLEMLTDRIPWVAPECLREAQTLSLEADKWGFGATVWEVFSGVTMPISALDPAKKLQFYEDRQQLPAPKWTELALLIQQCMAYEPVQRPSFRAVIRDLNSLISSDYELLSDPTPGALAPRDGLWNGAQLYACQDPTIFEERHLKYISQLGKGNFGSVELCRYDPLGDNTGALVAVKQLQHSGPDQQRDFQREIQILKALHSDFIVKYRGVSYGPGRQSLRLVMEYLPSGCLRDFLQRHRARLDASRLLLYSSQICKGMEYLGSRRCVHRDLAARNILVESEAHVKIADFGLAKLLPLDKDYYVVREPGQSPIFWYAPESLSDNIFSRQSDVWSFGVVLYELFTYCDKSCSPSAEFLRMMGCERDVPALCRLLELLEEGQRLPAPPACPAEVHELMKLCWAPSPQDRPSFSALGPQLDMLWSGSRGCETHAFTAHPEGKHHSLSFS

[2] = target: T2, BTK-WT (Homo sapiens, UniProt Q06187); experiment: Btk in vitro inhibitory activity (one of Method A TR-FRET, Method B electrophoretic mobility shift, Method C radiometric filter binding); conditions: read-out: BTK-WT (IC50)
T2 construct: purified from insect cells as a full-length construct containing an N-terminal 6X-His tag; His6 (N); made in house; host or cells: insect cells (baculovirus Sf21 in Method B)
T2 sequence (Q06187 whole entry): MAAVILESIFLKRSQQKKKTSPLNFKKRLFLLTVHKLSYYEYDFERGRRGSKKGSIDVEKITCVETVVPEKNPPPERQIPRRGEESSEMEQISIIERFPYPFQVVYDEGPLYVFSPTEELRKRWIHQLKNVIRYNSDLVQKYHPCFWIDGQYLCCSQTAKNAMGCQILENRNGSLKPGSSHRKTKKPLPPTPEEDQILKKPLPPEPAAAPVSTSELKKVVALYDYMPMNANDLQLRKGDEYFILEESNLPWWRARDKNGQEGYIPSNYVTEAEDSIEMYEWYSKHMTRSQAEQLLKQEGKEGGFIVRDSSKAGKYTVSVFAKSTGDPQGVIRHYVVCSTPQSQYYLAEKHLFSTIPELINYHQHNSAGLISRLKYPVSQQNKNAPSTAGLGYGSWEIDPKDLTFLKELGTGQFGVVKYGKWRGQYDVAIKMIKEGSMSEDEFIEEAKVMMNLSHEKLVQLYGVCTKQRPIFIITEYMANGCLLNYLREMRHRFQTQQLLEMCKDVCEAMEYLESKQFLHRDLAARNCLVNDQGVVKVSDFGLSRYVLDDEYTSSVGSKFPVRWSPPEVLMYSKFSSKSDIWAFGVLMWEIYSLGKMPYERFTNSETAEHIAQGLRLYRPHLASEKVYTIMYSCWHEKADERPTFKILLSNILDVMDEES

[3] = target: LCK (Homo sapiens, UniProt P06239); experiment: Inhibition of a panel of kinases, in vitro HotSpot kinase assay: LCK; conditions: 1 μM ATP, read-out: LCK (IC50)
Chain of LCK (P06239 whole entry): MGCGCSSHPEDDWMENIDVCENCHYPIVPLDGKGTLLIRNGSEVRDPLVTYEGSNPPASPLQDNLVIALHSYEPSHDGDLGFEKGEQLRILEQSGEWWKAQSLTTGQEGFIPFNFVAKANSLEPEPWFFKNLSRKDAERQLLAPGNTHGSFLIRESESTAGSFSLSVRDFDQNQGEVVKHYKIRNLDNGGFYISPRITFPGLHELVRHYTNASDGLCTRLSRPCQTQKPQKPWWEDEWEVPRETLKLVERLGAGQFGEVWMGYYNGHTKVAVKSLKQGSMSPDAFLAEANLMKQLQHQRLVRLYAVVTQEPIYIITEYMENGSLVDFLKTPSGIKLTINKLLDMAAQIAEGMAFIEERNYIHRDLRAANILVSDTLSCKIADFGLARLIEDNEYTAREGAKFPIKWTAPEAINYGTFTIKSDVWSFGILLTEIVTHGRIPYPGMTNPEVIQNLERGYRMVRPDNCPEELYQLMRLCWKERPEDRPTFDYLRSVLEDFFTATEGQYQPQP

Compound | IC50 ([1]; Table 11, Formula B-I) | IC50 ([2]; Table 11, Formula B-I) | IC50 ([3]; Table 11, Formula B-I) | IC50 ([1]; Table 12, Formula C-I) | IC50 ([2]; Table 12, Formula C-I) | IC50 ([3]; Table 12, Formula C-I)
CN1CCN(C(=O)c2ccc(Nc3nc(NC4CCC(NC(=O)N(C)C)CC4)cnc3C(N)=O)cc2)CC1 (stereo not drawn) [Example B-13, 5-(4-(3,3-dimethylureido)cyclo-hexylamino)-3-(4-(4-methylpiperazine-1-carbonyl)phenylamino) pyrazine-2-carboxamide] | 100 to 1000 nM | ≤ 100 nM | < 100 nM |  |  | 
CN1CCN(C(=O)c2ccc(Nc3nc(N[C@H]4CC[C@H](NC(=O)c5ccc(C6CC6)cc5F)CC4)cnc3C(N)=O)cc2)CC1 [Example B-14, 5-((1r,4r)-4-(4-cyclo-propyl-2-fluoro-benzamido)cyclohexyl-amino)-3-(4-(4-methylpiperazine-1-carbonyl)phenylamino) pyrazine-2-carboxamide] | 100 to 1000 nM | ≤ 100 nM | 100 to 1000 nM |  |  | 
CN1CCN(C(=O)c2ccc(Nc3nc(NC4CCC(NC(=O)c5ccc(C6CC6)cc5F)CC4)cnc3C(N)=O)cc2)CC1 (stereo not drawn) [Example B-15, 5-(4-(4-cyclopropyl-2-fluoro-benzamido)cyclohexyl-amino)-3-(4-(4-methylpiperazine-1-carbonyl)phenylamino) pyrazine-2-carboxamide] | < 100 nM | ≤ 100 nM | < 100 nM |  |  | 
CN1CCN(C(=O)c2ccc(Nc3nc(N[C@H]4CC[C@@H](NC(=O)N(C)C)CC4)cnc3C(N)=O)cc2)CC1 [Example B-16, 5-((1s,4s)-4-(3,3-dimethyl-ureido)cyclohexyl-amino)-3-(4-(4-methylpiperazine-1-carbonyl)phenylamino) pyrazine-2-carboxamide] | 1000 to 10000 nM | ≤ 100 nM | < 100 nM |  |  | 
Cc1cc(Nc2nc(N[C@@H]3CCCNC3)cnc2C(N)=O)sn1 [Example C-1, 3-[(3-methyl-1,2-thiazol-5-yl)amino]-5-{[(3R)-piperidin-3-yl]amino}pyrazine-2-carboxamide] |  |  |  | < 100 nM | ≤ 100 nM | < 100 nM
Cc1cc(Nc2nc(N[C@H]3CCCN(C(=O)N(C)C)C3)cnc2C(N)=O)sn1 [Example C-2, 5-{[(3S)-1-(dimethylcarbamoyl)piperidin-3-yl]amino}-3-[(3-methyl-1,2-thiazol-5-yl)amino]pyrazine-2-carboxamide] |  |  |  | 100 to 1000 nM | ≤ 100 nM | 100 to 1000 nM
Cc1cc(Nc2nc(N[C@@H]3CCCN(C(=O)c4ccccc4)C3)cnc2C(N)=O)sn1 [Example C-3, 5-{[(3R)-1-benzoylpiperidin-3-yl]amino}-3-[(3-methyl-1,2-thiazol-5-yl)amino]pyrazine-2-carboxamide] |  |  |  | > 10000 nM | ≤ 100 nM | > 10000 nM
Cc1cc(Nc2nc(N[C@@H]3CCCN(C(=O)N(C)C)C3)cnc2C(N)=O)sn1 [Example C-5, 5-([(3R)-1-(dimethylcarbamoyl)piperidin-3-yl]amino)-3-[(3-methyl-1,2-thiazol-5-yl)amino]pyrazine-2-carboxamide hydrochloride] |  |  |  | 100 to 1000 nM | 100 to 1000 nM | 1000 to 10000 nM
Cc1cc(Nc2nc(N(C)[C@H]3CCCN(C(=O)N(C)C)C3)cnc2C(N)=O)sn1 [Example C-8, 5-([(3S)-1-(dimethylcarbamoyl)piperidin-3-yl](methyl)amino)-3-[(3-methyl-1,2-thiazol-5-yl)amino]pyrazine-2-carboxamide] |  |  |  | 1000 to 10000 nM | 100 to 1000 nM | 1000 to 10000 nM
Cc1cc(Nc2nc(N(C)CC3CCN(C(=O)N(C)C)CC3)cnc2C(N)=O)sn1 [Example C-14, 5-({[1-(dimethylcarbamoyl)piperidin-4-yl]methyl}(methyl)amino)-3-[(3-methyl-1,2-thiazol-5-yl)amino]pyrazine-2-carboxamide] |  |  |  | 1000 to 10000 nM | 100 to 1000 nM | 1000 to 10000 nM
Cc1cc(Nc2nc(N(C)CC3CCN(C(=O)c4ccccc4)CC3)cnc2C(N)=O)sn1 [Example C-15, 5-{[(1-benzoylpiperidin-4-yl)methyl](methyl)amino}-3-[(3-methyl-1,2-thiazol-5-yl)amino]pyrazine-2-carboxamide] |  |  |  | 1000 to 10000 nM | 100 to 1000 nM | 1000 to 10000 nM

Further lines, results first:

IC50 ([1]; Table 11, Formula B-I) | IC50 ([2]; Table 11, Formula B-I) | IC50 ([3]; Table 11, Formula B-I) | IC50 ([1]; Table 12, Formula C-I) | IC50 ([2]; Table 12, Formula C-I) | IC50 ([3]; Table 12, Formula C-I) | Compound
100 to 1000 nM | ≤ 100 nM | < 100 nM |  |  |  | Cc1cc(Nc2nc(N[C@H]3CC[C@H](NC(=O)c4ccc(N(C)C)cc4)CC3)cnc2C(N)=O)sn1 [Example B-1, 3-[(3-methyl-1,2-thiazol-5-yl)amino]-5-{[(1r,4r)-4-[4-(dimethylamino)benzamido]cyclohexyl]amino}pyrazine-2-carboxamide]
< 100 nM | ≤ 100 nM | 100 to 1000 nM |  |  |  | Cc1cc(Nc2nc(NC3CCC(NC(=O)c4ccc(N(C)C)cc4)CC3)cnc2C(N)=O)sn1 (stereo not drawn) [Example B-5, 5-({4-[4-(dimethylamino)benzamido]cyclohexyl}amino)-3-[(3-methyl-1,2-thiazol-5-yl)amino]pyrazine-2-carboxamide]
 |  |  | > 10000 nM | ≤ 100 nM | > 10000 nM | Cc1cc(Nc2nc(N[C@H]3CCCN(C(=O)c4ccc(N(C)C)cc4)C3)cnc2C(N)=O)sn1 [Example C-4, 5-{[(3S)-1-[4-(dimethylamino)benzoyl]piperidin-3-yl]amino}-3-[(3-methyl-1,2-thiazol-5-yl)amino]pyrazine-2-carboxamide]
 |  |  | > 10000 nM | 1000 to 10000 nM | > 10000 nM | Cc1cc(Nc2nc(N[C@H]3CCCN(C(=O)c4ccccc4)C3)cnc2C(N)=O)sn1 [Example C-6, 5-{[(3S)-1-benzoylpiperidin-3-yl]amino}-3-[(3-methyl-1,2-thiazol-5-yl)amino]pyrazine-2-carboxamide]
 |  |  | > 10000 nM | > 10000 nM | > 10000 nM | Cc1cc(Nc2nc(N[C@@H]3CCCN(C(=O)c4ccc(N(C)C)cc4)C3)cnc2C(N)=O)sn1 [Example C-7, 5-{[(3R)-1-[4-(dimethylamino)benzoyl]piperidin-3-yl]amino}-3-[(3-methyl-1,2-thiazol-5-yl)amino]pyrazine-2-carboxamide hydrochloride]
 |  |  | 100 to 1000 nM | ≤ 100 nM | 100 to 1000 nM | Cc1cc(Nc2nc(N[C@H]3CCN(C(=O)N(C)C)C3)cnc2C(N)=O)sn1 [Example C-10, 5-{[(3S)-1-(dimethylcarbamoyl)pyrrolidin-3-yl]amino}-3-[(3-methyl-1,2-thiazol-5-yl)amino]pyrazine-2-carboxamide]
 |  |  | 1000 to 10000 nM | ≤ 100 nM | 1000 to 10000 nM | Cc1cc(Nc2nc(N[C@@H]3CCN(C(=O)c4ccccc4)C3)cnc2C(N)=O)sn1 [Example C-11, 5-{[(3R)-1-benzoylpyrrolidin-3-yl]amino}-3-[(3-methyl-1,2-thiazol-5-yl)amino]pyrazine-2-carboxamide hydrochloride]
 |  |  | 100 to 1000 nM | 100 to 1000 nM | 100 to 1000 nM | Cc1cc(Nc2nc(N[C@@H]3CCN(C(=O)N(C)C)C3)cnc2C(N)=O)sn1 [Example C-12, 5-([(3R)-1-(dimethylcarbamoyl)pyrrolidin-3-yl]amino)-3-[(3-methyl-1,2-thiazol-5-yl)amino]pyrazine-2-carboxamide]
 |  |  | 1000 to 10000 nM | ≤ 100 nM | 1000 to 10000 nM | Cc1cc(Nc2nc(N[C@@H]3CCN(C(=O)c4ccc(N(C)C)cc4)C3)cnc2C(N)=O)sn1 [Example C-13, 5-([(3R)-1-[4-(dimethylamino)benzoyl]pyrrolidin-3-yl]amino)-3-[(3-methyl-1,2-thiazol-5-yl)amino]pyrazine-2-carboxamide]
 |  |  | 1000 to 10000 nM | 100 to 1000 nM | 1000 to 10000 nM | Cc1cc(Nc2nc(N(C)CC3CCN(C(=O)c4ccc(N(C)C)cc4)CC3)cnc2C(N)=O)sn1 [Example C-16, 5-[({1-[4-(dimethylamino)benzoyl]piperidin-4-yl}methyl)(methyl)amino]-3-[(3-methyl-1,2-thiazol-5-yl)amino]pyrazine-2-carboxamide]

Source: patent US20210070748A1, “INHIBITORS OF BRUTONS TYROSINE KINASE” (Pharmacyclics LLC, priority 2015, published 2021)
